Test results as given in patent publication US4701448A, “Metal salt of organic phosphate and an antihyperlipemic agent containing the same” (Asahi Denka Kogyo Kabushiki Kaisha, priority 1985, dated 1987).
Read-outs that look alike come from different tables or passages of the source.

Legend:
[1] = Acidity (pKa) of CB3A; format: physicochemical
[2] = tested on: serum cholesterol; experiment: Serum cholesterol lowering activity, oral, rabbit, 5 successive days; format: in vivo; conditions: two times a day, 5 days
Method: (1) Serum cholesterol lowering activity the metal salt of organic phosphate according to the present invention was orally administered to a rabbit (body weight of about 3 Kg) two times a day (at 9:00 a.m. and 4:00 p.m.) for 5 successive days. After 5 days, blood was sampled and the total cholesterol value in serum was measured in a conventional manner.

[3] = Stability, 5 weeks at 45° C. and humidity of 80% (HPLC remaining rate); format: physicochemical; conditions: after 5 weeks, humidity of 80%, 50400 min
Method: One gram each of CB3A, CK3A and various metal salts thereof was placed in a beaker and the beaker was allowed to stand for 5 weeks in a constant temperature and humidity bath controlled at a temperature of 45° C. and a humidity of 80%. After 5 weeks, a remaining rate of the compound was analyzed quantitatively with a high performance liquid chromatography "Tri rotar" manufactured by Nippon Bunko K. K. (Japan).
A0 = initial amount of the compound prior to standing in the constan
temperature and humidity bath
A1 = final amount of the compound after 5 weeks

[4] = tested on: mouse; experiment: Acute toxicity, mouse; format: in vivo
Source text: (§1) The acute toxicity of the metal salt of CB3A and of CK3A was examined by orally or peritoneally administrating an aqueous solution or dispersion thereof the results are shown in Table 2.
(§2) a . . . per os (oral administration)
(§3) b . . . intraperitoneal injection

[5] = Absorbability and effect (statement in words)
[6] = tested on: rat; experiment: Acute toxicity, rat; format: in vivo
Source text: as §1, §2, §3

[7] = tested on: synthesis of cholesterol; conditions: in words; Japanese Patent Application No. 165490/1983, J. Antibiotics 38, 328-332 (1985); cited from earlier work
[8] = Water solubility, hygroscopic property and stability (statements in words); format: physicochemical; conditions: listed as CB3K

CCC(C)C(=O)OC1CCC=C2C=CC(C)C(CCC(CC(O)CC(=O)O)OP(=O)(O)O)C21 (stereo not shown) [CB3A, reference compound]
pKa ([1]; carboxylic acid group in CB3A molecule, read-out: pKa3): 7.1
pKa ([1]; phosphoric acid group in CB3A molecule, read-out: pKa1): 2.2
pKa ([1]; phosphoric acid group in CB3A molecule, read-out: pKa2): 5
Total Serum cholesterol lowering rate ([2]; 1.5 mg/kg/day): 9.4%
Total Serum cholesterol lowering rate ([2]; 6 mg/kg/day): 23.9%
Remaining rate [3]: 14%
LD50 ([4]; intraperitoneal injection): > 500 mg/kg
LD50 ([4]; per os (oral administration)): > 2000 mg/kg
absorbability and effect [5]: unsatisfactory
LD50 ([6]; intraperitoneal injection): > 500 mg/kg
LD50 ([6]; per os (oral administration)): > 2000 mg/kg
activity of inhibiting the synthesis of cholesterol [7]: strong activity of inhibiting the synthesis of cholesterol
stability [8]: unstable
